One data set deals with OvCar8 spheroids. The data set can be described thus: 3D spheroid cytotoxicity (CellTox Green). It is filed as cell-based. The following applies: Homo sapiens, OVCAR-8, 48 h, OvCar8 3D spheroids, read-out: IC50 cell toxicity (CellTox Green). The procedure:
Tumor complexity is represented more realistically in 3D spheroid models than in 2D monolayer models.
OvCar8 cells (8000/well) were seeded into an Ultra-Low-Attachment plate (Corning #4520) and grown for 96 h. Then, spheroids were treated with the drugs for 48 h. Cell cytotoxicity was assessed using the CellTox Green Cytotoxicity Assay (Promega #G8731) 48 h after treatment with NYONE ([…], 485Ex/520Em). Filters: BFEx/GreenEm (530/43 nm); BlueEx (475/28 nm)/GreenEm (530/43 nm). Viability and apoptosis were determined by RealTime-Glo (460Em) (Promega #G9711) and caspase-Glo 3/7 (565Em) (Promega #G8090) according to the manufacturer’s instructions using a microplate reader (Spark, Tecan). Relative caspase activity: caspase activity divided by the viability (normalized to control). For live-dead staining, cells were grown and treated as described above. Then, 80% of the medium was removed and replaced with propidium iodide (PI) (15 μM), calcein-AM (0.2 μM), and Hoechst 33342 (1.8 μM) in medium for 3 h and imaged by NYONE ([…]). Filters: BFEx/GreenEm(530/43 nm); Hoechst 33342: UVEx (377/50 nm)/BlueEm (452/45 nm); calcein-AM: BlueEx (475/28 nm)/GreenEm (530/43 nm); propidium iodide: LimeEx(562/40 nm)/RedEm(628/32 nm). All experiments were performed in biological triplicates. PBS was used as the negative control, and cisplatin and P8-D6 as the positive control.

Data set [1] is described as follows: In vivo elimination via urine and feces over 24 h. Set-up: species or system Sprague–Dawley rats. The following applies: for P8-D6 (plus glucuronide) exceeds metabolite in feces: 24 h cumulative. The procedure: To investigate the elimination of P8-D6 and its phase I and phase II metabolites, urine and feces samples were collected over the course of 24 h and examined.
To examine possible in vivo phase II metabolites, an enzymatic hydrolysis with glucuronidase/sulfatase from Helix pomatia was performed with both urine and feces samples. […] No sulfate phase II metabolites were observed.
Effects of the diet were reduced by fasting the rats overnight prior to P8-D6 application. Blood samples were taken at 5, 15, 30, 60, 120, 180, 300, 360, and 600 min after i.v. application or 30, 60, 90, 120, 240, and 600 min after p.o. application. Immediately afterward, the plasma was collected by centrifugation at 2000 g for 10 min. The rats were housed in metabolic cages to collect the urine in specially attached containers. Urine and feces samples were collected every 2 h. The rats were euthanized by CO2 inhalation. The harvested organs (kidney, spleen, lung, liver, and colon) were weighed and submerged in liquid nitrogen. All collected samples were stored at −80 °C until analysis.
Thirty mg of feces was added to 100 μL of a 0.15 M NaCl solution and stirred in the vortex for 30 s. Afterward, 200 μL of an ice-cold mixture of acetonitrile/methanol (2:1) was added before vortexing again for 30 s. Finally, the suspension was centrifuged at 15000 g for 5 min. 40 μL of the supernatant was injected into the HPLC. The samples from three mice per group were analyzed. Calibration/control samples were prepared the same way with fecal samples collected ahead of the in vivo study. For calibration, the matrix was spiked with a defined concentration of the analyte. Final concentrations ranged from 0 nmol/g to 200 nmol/g. Triple determinations were performed and prepared on each respective day. 50 μL of urine was mixed with 100 μL of an ice-cold mixture of acetonitrile/methanol (2:1) and stirred in the vortex for 5 min. The suspension was centrifuged at 15000 g for 5 min, and 40 μL of the supernatant was injected into the HPLC. Calibration/control samples were prepared the same way with urine samples collected ahead of the in vivo study. For calibration, the matrix was spiked with a defined concentration of the analyte. Final concentrations ranged from 0 to 10 μM. Triple determinations were performed and prepared on each respective day. LoD: 0.02 μM (urine), 0.22 nmol/g (feces); LoQ: 0.06 μM (urine), 0.72 nmol/g (feces). Additionally, to identify phase II metabolites, feces (30 mg) and urine (50 μL) from the in vivo study were incubated with arylsulfatase (at pH 6.2) and glucuronidase (at pH 4.5) from Helix pomatia in acetate buffer for 2 h in a 37 °C water bath. For reference, feces and urine without enzyme and 4-nitrophenylsulfate and 4-nitrophenylglucuronide were incubated as well. All experiments were performed in biological triplicates.

pIC50: −log10 of the molar value.

As a reminder, the pIC50 is the negative decadic logarithm of the IC50, by convention in mol/L.

With `COc1cc(-c2cc3ccncc3c3nc(OCCN(C)C)c4cnccc4c23)cc(OC)c1OC` [P8-D6, 6-(N,N-dimethyl-2-aminoethoxy)-11-(3,4,5-trimethoxyphenyl)-pyrido[3,4-c][1,9]-phenanthroline], the pIC50 in the data set with OvCar8 spheroids is 5.95. For the compound `CNCCOc1nc2c3cnccc3cc(-c3cc(OC)c(OC)c(OC)c3)c2c2ccncc12` [P8-D6 mono], the “P8-D6 (plus glucuronide) exceeds metabolite in feces” value in data set [1] was 3.7 fold. For the same compound, the pIC50 with OvCar8 spheroids was 5.65. Consider `COc1cc(-c2cc3ccncc3c3nc(OCC[N+](C)(C)[O-])c4cnccc4c23)cc(OC)c1OC` [P8-D6 N-oxide], for which the “P8-D6 (plus glucuronide) exceeds metabolite in feces” value in data set [1] is on record as 31 fold. This compound also came in with a concentration in feces in data set [1] (after 2 h) of 2.90 nmol/g. For the same compound, in data set [1] (rat, in vivo), the “detectable in feces up to” value is reported as “up to 8 h”. `COc1cc(-c2cc3ccncc3c3[nH]c(=O)c4cnccc4c23)cc(OC)c1OC` [P8-DO]: the “detection in urine and feces” value in data set [1] (24 h) is “absent”.

(Values after article PMC11997890, “In Vivo and In Vitro Pharmacokinetic Studies of a Dual Topoisomerase I/II Inhibitor” (ACS Pharmacology & Translational Science, 2025).)
